Source: PubChem BioAssay AID256 (DTP/NCI, 2004)
“And” between values parts separate entries of the source, which are not always exact repeats. Equal entries are not always repeated. Inconclusive results and toxic doses are left out. The calls were made as follows: active = survival T/C of 150% or more; inactive = T/C below 125% in these data.

Test system: CD2F1 mice, L1210 leukemia ip, survival T/C
Test: NCI In Vivo Anticancer Drug Screen. Data for tumor model L1210 Leukemia (intraperitoneal) in CD2F1 (CDF1) mice
Settings: higher = longer survival
How it was run: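 Ratio T/C, where T is the treated-group value and C the vehicle-dosed control value, from mice implanted with a transplantable tumor.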

[1] = endpoint: mean survival time, dose: 100.0 mg/kg/injection, schedule: Q04DX003 (ip), vehicle: saline with Tween-80
[2] = endpoint: mean survival time, dose: 200.0 mg/kg/injection, schedule: Q04DX003 (ip), vehicle: saline with Tween-80
[3] = endpoint: mean survival time, dose: 400.0 mg/kg/injection, schedule: Q04DX003 (ip), vehicle: saline with Tween-80
[4] = endpoint: mean survival time, dose: 100.0 mg/kg/injection, schedule: Q04DX002 (ip), vehicle: saline
[5] = endpoint: mean survival time, dose: 200.0 mg/kg/injection, schedule: Q04DX002 (ip), vehicle: saline
[6] = endpoint: mean survival time, dose: 100.0 mg/kg/injection, schedule: Q01DX001 (ip), vehicle: saline with Tween-80
[7] = endpoint: mean survival time, dose: 200.0 mg/kg/injection, schedule: Q01DX001 (ip), vehicle: saline with Tween-80
[8] = endpoint: mean survival time, dose: 400.0 mg/kg/injection, schedule: Q01DX001 (ip), vehicle: saline with Tween-80
[9] = endpoint: mean survival time, dose: 12.5 mg/kg/injection, schedule: Q01DX005 (ip), vehicle: water
[10] = endpoint: mean survival time, dose: 25.0 mg/kg/injection, schedule: Q01DX005 (ip), vehicle: water
[11] = endpoint: mean survival time, dose: 100.0 mg/kg/injection, schedule: Q01DX009 (ip), vehicle: saline with Tween-80
[12] = endpoint: mean survival time, dose: 200.0 mg/kg/injection, schedule: Q01DX009 (ip), vehicle: saline with Tween-80
[13] = endpoint: mean survival time, dose: 400.0 mg/kg/injection, schedule: Q01DX009 (ip), vehicle: saline with Tween-80

Measured: T/C

c1ccc2c(c1)c1ccccc1c1nc3c(nc21)CCCC3
inactive: [1] 102 % of control | [2] 96 % of control | [3] 96 % of control

O=C1CSC(=S)N1/N=C/c1ccc(F)cc1
inactive: endpoint: mean survival time, dose: 75.0 mg/kg/injection, schedule: Q01DX001 (ip), vehicle: other 100 % of control | endpoint: mean survival time, dose: 150.0 mg/kg/injection, schedule: Q01DX001 (ip), vehicle: other 102 % of control | endpoint: mean survival time, dose: 300.0 mg/kg/injection, schedule: Q01DX001 (ip), vehicle: other 98 % of control

ClC1(Cl)Cc2ccccc21
inactive: endpoint: mean survival time, dose: 266.0 mg/kg/injection, schedule: Q04DX003 (ip), vehicle: saline sonified 96 % of control | endpoint: mean survival time, dose: 400.0 mg/kg/injection, schedule: Q04DX003 (ip), vehicle: saline sonified 88 % of control | endpoint: mean survival time, dose: 600.0 mg/kg/injection, schedule: Q04DX003 (ip), vehicle: saline sonified 100 % of control | endpoint: median survival time, dose: 50.0 mg/kg/injection, schedule: Q01DX005 (ip), vehicle: saline with Tween-80 102 % of control | endpoint: median survival time, dose: 100.0 mg/kg/injection, schedule: Q01DX005 (ip), vehicle: saline with Tween-80 113 % of control | endpoint: median survival time, dose: 200.0 mg/kg/injection, schedule: Q01DX005 (ip), vehicle: saline with Tween-80 102 % of control

O=c1sc2ccccc2n1CCSCCn1c(=S)sc2ccccc21
inactive: endpoint: mean survival time, dose: 100.0 mg/kg/injection, schedule: Q04DX003 (ip), vehicle: saline 93 % of control | endpoint: mean survival time, dose: 200.0 mg/kg/injection, schedule: Q04DX003 (ip), vehicle: saline 96 % of control | endpoint: mean survival time, dose: 400.0 mg/kg/injection, schedule: Q04DX003 (ip), vehicle: saline 96 % of control

O=C(CCl)NCc1cn(C2CC(O)C(CO)O2)c(=O)[nH]c1=O (configuration not stated)
inactive: endpoint: mean survival time, dose: 5.6 mg/kg/injection, schedule: Q01DX005 (ip), vehicle: water 111 % of control | endpoint: mean survival time, dose: 11.25 mg/kg/injection, schedule: Q01DX005 (ip), vehicle: water 100 % of control | endpoint: mean survival time, dose: 22.5 mg/kg/injection, schedule: Q01DX005 (ip), vehicle: water 103 % of control | endpoint: mean survival time, dose: 45.0 mg/kg/injection, schedule: Q01DX005 (ip), vehicle: water 95 % of control | endpoint: mean survival time, dose: 90.0 mg/kg/injection, schedule: Q01DX005 (ip), vehicle: water 103 % of control

[CH3][Sn]1([CH3])[O]C2C(CO)OC(n3ccc(N)nc3=O)C2[O]1 (configuration not stated)
inactive: endpoint: mean survival time, dose: 12.5 mg/kg/injection, schedule: Q01DX005 (ip), vehicle: other 103 % of control | endpoint: mean survival time, dose: 25.0 mg/kg/injection, schedule: Q01DX005 (ip), vehicle: other 92 % of control | endpoint: mean survival time, dose: 50.0 mg/kg/injection, schedule: Q01DX005 (ip), vehicle: other 106 % of control

CC(O)C1OC(n2cnc3c(ncn3C3OC(C(C)O)C(O)C3O)c2=O)C(O)C1O (configuration not stated)
inactive: endpoint: mean survival time, dose: 10.63 mg/kg/injection, schedule: Q01DX005 (ip), vehicle: water 102 % of control | endpoint: mean survival time, dose: 21.25 mg/kg/injection, schedule: Q01DX005 (ip), vehicle: water 98 % of control | endpoint: mean survival time, dose: 42.5 mg/kg/injection, schedule: Q01DX005 (ip), vehicle: water 102 % of control | endpoint: mean survival time, dose: 85.0 mg/kg/injection, schedule: Q01DX005 (ip), vehicle: water 101 % of control | endpoint: mean survival time, dose: 170.0 mg/kg/injection, schedule: Q01DX005 (ip), vehicle: water 108 % of control

O=C(O)C(O)c1ccccc1 (configuration not stated)
inactive: [4] 101 % of control | [5] 114 % of control

CCC(CCC(C)C1CCC2C3CC=C4CC(I)CCC4(C)C3CCC12C)C(C)C (configuration not stated)
inactive: [6] 90 % of control | [7] 90 % of control | [8] 94 % of control

CC(=O)OCC1OC(N2C(=O)C=CC2=O)C(OC(C)=O)C1OC(C)=O (configuration not stated)
inactive: endpoint: mean survival time, dose: 1.56 mg/kg/injection, schedule: Q01DX005 (ip), vehicle: water 110 % of control | endpoint: mean survival time, dose: 3.13 mg/kg/injection, schedule: Q01DX005 (ip), vehicle: water 96 % of control | endpoint: mean survival time, dose: 6.25 mg/kg/injection, schedule: Q01DX005 (ip), vehicle: water 104 % of control | [9] 95 % of control and 102 % of control | [10] 106 % of control

Nc1cc2c(c[n+](CCO)c3ccccc23)c2ccccc12
inactive: endpoint: mean survival time, dose: 12.5 mg/kg/injection, schedule: Q04DX003 (ip), vehicle: water 103 % of control | endpoint: mean survival time, dose: 25.0 mg/kg/injection, schedule: Q04DX003 (ip), vehicle: water 104 % of control | endpoint: mean survival time, dose: 50.0 mg/kg/injection, schedule: Q04DX003 (ip), vehicle: water 110 % of control | endpoint: mean survival time, dose: 100.0 mg/kg/injection, schedule: Q04DX003 (ip), vehicle: water 120 % of control | endpoint: mean survival time, dose: 200.0 mg/kg/injection, schedule: Q04DX003 (ip), vehicle: water 120 % of control

COc1ccc(NC(=O)Nc2c(Oc3ccc(Cl)cc3)ccc(Cl)c2S(=O)(=O)O)cc1Cl
inactive: endpoint: mean survival time, dose: 50.0 mg/kg/injection, schedule: Q01DX009 (ip), vehicle: saline 98 % of control | endpoint: mean survival time, dose: 100.0 mg/kg/injection, schedule: Q01DX009 (ip), vehicle: saline 87 % of control | [1] 93 % of control | [2] 91 % of control

CCOC(=O)c1c[nH]c2ccc3c(nc(C)n3C)c2c1=O
inactive: endpoint: median survival time, dose: 25.0 mg/kg/injection, schedule: Q01DX005 (ip), vehicle: Klucel (hydroxypropylcellulose) (HPC) 98 % of control | endpoint: median survival time, dose: 50.0 mg/kg/injection, schedule: Q01DX005 (ip), vehicle: Klucel (hydroxypropylcellulose) (HPC) 100 % of control | endpoint: median survival time, dose: 100.0 mg/kg/injection, schedule: Q01DX005 (ip), vehicle: Klucel (hydroxypropylcellulose) (HPC) 108 % of control | endpoint: median survival time, dose: 200.0 mg/kg/injection, schedule: Q01DX005 (ip), vehicle: Klucel (hydroxypropylcellulose) (HPC) 112 % of control

Nc1ccn(C2OC3COC2C3O)c(=O)n1 (configuration not stated)
inactive: [9] 101 % of control | [10] 101 % of control | endpoint: mean survival time, dose: 50.0 mg/kg/injection, schedule: Q01DX005 (ip), vehicle: water 102 % of control | endpoint: mean survival time, dose: 100.0 mg/kg/injection, schedule: Q01DX005 (ip), vehicle: water 101 % of control | endpoint: mean survival time, dose: 200.0 mg/kg/injection, schedule: Q01DX005 (ip), vehicle: water 107 % of control

CCCC1CC[N-]CC1.CCCC1CC[N-]CC1.[Cl][Cu][Cl]
inactive: endpoint: mean survival time, dose: 3.13 mg/kg/injection, schedule: Q01DX009 (ip), vehicle: saline 96 % of control | endpoint: mean survival time, dose: 12.5 mg/kg/injection, schedule: Q01DX009 (ip), vehicle: saline 94 % of control

NC(=O)c1c(Br)n(C2OC(CO)C(O)C2O)c2ncnc(N)c12 (configuration not stated)
inactive: endpoint: mean survival time, dose: 50.0 mg/kg/injection, schedule: Q01DX009 (ip), vehicle: saline with Tween-80 105 % of control

CCCCCCCC(=O)Nc1c(C)cc(C)cc1C
inactive: [11] 91 % of control | [12] 98 % of control | [13] 92 % of control

CC(=O)C1CCC2C3CC=C4CC(OC(=O)CCC(C)C)CCC4(C)C3CCC12C (configuration not stated)
inactive: [1] 95 % of control | [2] 95 % of control | [3] 92 % of control

CCCCCCCCCCCC(C)(O)C#N (configuration not stated)
inactive: [4] 96 % of control | [5] 92 % of control | endpoint: mean survival time, dose: 400.0 mg/kg/injection, schedule: Q04DX002 (ip), vehicle: saline 100 % of control

CC1CCC(NC(=O)NCCCl)CC1 (configuration not stated)
inactive: [6] 98 % of control | [7] 109 % of control | [8] 101 % of control

O=c1[nH]cc(S(=O)(=O)Nc2ccccc2)c(=O)[nH]1
inactive: [6] 88 % of control | [8] 96 % of control

O=C(OCC(OC(=O)c1ccccc1)C1OC(c2ccccc2)OC1C(COC(=O)c1ccccc1)OC(=O)c1ccccc1)c1ccccc1 (configuration not stated)
inactive: [1] 97 % of control | [2] 101 % of control | [3] 97 % of control

CN(c1ccccc1Cl)S(C)(=O)=O
inactive: [1] 98 % of control | [2] 97 % of control | [3] 90 % of control

CC(C)(N)C(=O)O
inactive: [11] 100 % of control | [12] 101 % of control | [13] 103 % of control
